# In patent publication US20110280940A1, “Di-Vanilloyl And Tri-Vanilloyl Derivatives For Use In Anti-Cancer Therapy” (priority 2008, published 2011):
# Legend:
# CDK2/cyclin A = target: T1, CDK2/cyclin A (Homo sapiens, UniProt P24941); assay: Kinase activity assay, CDK2A; type: biochemical; details: 10 μM, 1% DMSO, 15 μM ATP; residual activity
# T1 construct: made in house
# Protocol: Buffer A: 10 mM MgCl2, 1 mM EGTA, 1 mM DTT, 25 mM Tris-HCl pH 7.5, 50 μg heparin/ml. Buffer C: 60 mM β-glycerophosphate, 15 mM p-nitrophenylphosphate, 25 mM Mops (pH 7.2), 5 mM EGTA, 15 mM MgCl2, 1 mM DTT, 1 mM sodium vanadate, 1 mM phenyl phosphate.
# Kinase activities were assayed in Buffer A or C, at 30° C., at a final ATP concentration of 15 μM. Blank values were subtracted and activities expressed in % of the maximal activity, i.e. in the absence of inhibitors. Controls were performed with appropriate dilutions of DMSO.
# CDK1/cyclin B (M phase starfish oocytes, native), CDK2/cyclin A, CDK2/cyclin E, CDK5/p25 and CDK7/cyclin H (human, recombinant) were prepared as previously described (Leclerc et al., 2001, J. Biol. Chem. 2001, 276, 251-260; Bach et al., 2005, J Biol Chem 280: 31208-31219). Their kinase activity was assayed in buffer C, with 1 mg histone H1/ml, in the presence of 15 μM [gamma-^33P] ATP (3,000 Ci/mmol; 10 mCi/ml) in a final volume of 30 μl. After 30 min incubation at 30° C., 25 μl aliquots of supernatant were spotted onto 2.5×3 cm pieces of Whatman P81 phosphocellulose paper, and, 20 sec later, the filters were washed five times (for at least 5 min each time) in a solution of 10 ml phosphoric acid/liter of water. The wet filters were counted in the presence of 1 ml ACS (Amersham) scintillation fluid.
# 255 protein kinases = assay: Kinase inhibition profile of DLT95-Cl at 20 μM (33 PanQinase); type: biochemical, human; details: over the 255 kinases screened
# Protocol: In view of the results in FIG. 5 and Table 7, the inventors performed a broader analysis on impairment of 255 protein kinases by DLT95-Cl compound of the invention.
# 255 kinases where tested with DLT95-Cl at 20 μM to establish the kinase inhibition profile of the compound.
# The kinase inhibition profile of DLT95-Cl at 20 μM was determined using 255 protein kinases. Residual activity values were measured by testing each compound at one concentration in duplicate in each kinase assay. A radiometric protein kinase assay (33 PanQinase®Activity Assay) was used for measuring the kinase activity of 250 protein kinases. All kinase assays were performed in 96-well flashPlates™ from Perkin Elmer (Boston, Mass., USA) in a 50 μl reaction volume. […]
# Incorporation of ^33Pi (counting of “cpm”) was determined with a microplate scintillation counter (Microbeta, Wallac).
# For each kinase, the median value of the cpm of three wells with complete reaction cocktails, but without kinase, was defined as “low control” (n=2). This value reflects unspecific binding of radioactivity to the plate in the absence of protein kinase but in the presence of the substrate. […] The residual activity (in %) for each compound well was calculated by using the following formula: Res. Activity (%)=100×[(cpm of compound−low control)/(high control−low control)]
Structure (SMILES),"% ENZYMATIC ACTIVITY, CDK2A (CDK2/cyclin A) [%]",number of kinases whose activity is ≧50% impaired (255 protein kinases)
"COc1cc(C(=O)OCCOC(=O)c2ccc(O)c(OC)c2)ccc1O [DLT1, Ethane-1,2-diyl bis-(4-hydroxy-3-methoxybenzoate)]",91,–
"O=C(OCc1cc(COC(=O)c2ccc(O)c(Cl)c2)cc(COC(=O)c2ccc(O)c(Cl)c2)c1)c1ccc(O)c(Cl)c1 [DLT95-Cl, [3,5-bis[(4-hydroxy-3-chloro-benzoyl)oxymethyl]phenyl]methyl 4-hydroxy-3-chloro-benzoate]",–,249
